Measured values as given in article PMC3265452 (PLoS Neglected Tropical Diseases, 2012).
Structures can show the parent of a compound that is named as a salt.

Molecular target: AaDOP2 (Aedes aegypti, UniProt H6D5H2)
Experiment: AaDOP2 antagonist screen of the LOPAC1280 library (HEK-CRELuc-Aadop2 cells, luminescence)
Format: cell-based
Settings: not given

Sequence of AaDOP2 (H6D5H2 1-476): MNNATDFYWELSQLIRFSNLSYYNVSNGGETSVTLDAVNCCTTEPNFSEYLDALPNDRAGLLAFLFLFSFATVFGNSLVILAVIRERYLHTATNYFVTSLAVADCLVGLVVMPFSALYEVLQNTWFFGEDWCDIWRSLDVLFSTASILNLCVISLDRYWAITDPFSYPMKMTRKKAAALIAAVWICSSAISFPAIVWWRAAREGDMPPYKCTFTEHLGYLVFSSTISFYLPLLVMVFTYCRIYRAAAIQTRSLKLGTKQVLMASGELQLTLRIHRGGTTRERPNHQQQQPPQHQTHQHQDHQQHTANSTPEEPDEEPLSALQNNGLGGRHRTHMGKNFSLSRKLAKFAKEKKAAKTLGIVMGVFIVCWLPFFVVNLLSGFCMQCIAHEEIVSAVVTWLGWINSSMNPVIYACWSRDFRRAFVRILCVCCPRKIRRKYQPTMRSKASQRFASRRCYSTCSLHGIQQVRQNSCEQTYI

Compound	Compound effect (percent receptor signaling in presence of test compound, relative lux units relative to the SCH23390 control)
CC[C@@H](CO)NC(=O)[C@@H]1C=C2c3cccc4[nH]cc(c34)C[C@H]2N(C)C1 [Compound 752, Methylergonovine maleate]	107
CCOC(=O)[N-]c1cn(N2CCOCC2)n[o+]1 [Compound 753, Molsidomine]	98
Cc1nnc2ccc(-c3cccc(C(F)(F)F)c3)nn12 [Compound 754, 3-Methyl-6-(3-[trifluoromethyl]phenyl)-1,2,4-triazolo[4,3-b]pyridazine]	87
NC(=O)c1ncn([C@@H]2O[C@H](CO)[C@@H](O)[C@H]2O)c1O [Compound 755, Mizoribine]	94
CC[N+](CC)(CC)CCOc1ccc(/C=C/c2ccccc2)cc1 [Compound 757, MG 624]	89
CN[C@H](CC(=O)O)C(=O)O [Compound 758, N-Methyl-D-aspartic acid]	97
CCCCCCCCCCCCCCCCOCC(COCC(F)(F)F)OP(=O)(O)OC (centres unmarked) [Compound 760, MJ33]	77
CN1C[C@H](CNC(=O)OCc2ccccc2)C[C@@H]2c3cccc4c3c(cn4C)C[C@H]21 [Compound 761, Metergoline]	33
C#CCN(C)CCCOc1ccc(Cl)cc1Cl [Compound 763, Clorgyline hydrochloride]	96
CNc1ncnc2c1ncn2[C@H]1C[C@H](OP(=O)(O)O)[C@@H](COP(=O)(O)O)O1 [Compound 764, MRS 2179]	105
Cc1cnc(NC(=O)C2=C(O)c3ccccc3S(=O)(=O)N2C)s1 [Compound 765, Meloxicam sodium]	115
O=c1c(O)c(-c2ccc(O)cc2O)oc2cc(O)cc(O)c12 [Compound 766, Morin]	117
Nc1cc(N2CCCCC2)nc(N)[n+]1[O-] [Compound 767, Minoxidil]	110
COc1cc(CCN)ccc1O.Cl [Compound 768, 3-Methoxy-4-hydroxyphenethylamine hydrochloride]	116
Cc1ccc(Cl)c(Nc2ccccc2C(=O)O)c1Cl [Compound 769, Meclofenamic acid sodium]	107
Cc1[nH]c(=O)c(C#N)cc1-c1ccncc1 [Compound 770, Milrinone]	104
Cl.Cl.Cn1cnc(CCN)c1 [Compound 772, 1-Methylhistamine dihydrochloride]	94
CC(=O)Oc1cc(C(C)C)c(OCCN(C)C)cc1C [Compound 773, Moxisylyte hydrochloride]	33
CSC(N)=NCCC[C@H](N)C(=O)O [Compound 774, S-Methyl-L-thiocitrulline acetate]	97

Same assay, conditions: 10 µM compound, 300 nM dopamine, 2 hr; hit = compound effect <20

Compound	Compound effect (percent receptor signaling in presence of test compound, relative lux units relative to the SCH23390 control)
CSC(=N)N.CSC(=N)N.O=S(=O)(O)O [Compound 756, S-Methylisothiourea hemisulfate]	99%
